Target: HPK1 (Homo sapiens, UniProt Q92918)
Test: HPK1 Kinase Binding Assay
Conditions: LanthaScreen tracer 222, Eu-Anti GST antibody, active HPK1, one hour incubation at 25° C.
Protocol: A stock solution of 1 mM test compound was prepared in DMSO. The compound plate was prepared by 3-fold and 11-point serial dilutions. 0.1 μL of the compound in DMSO was transferred from the compound plate to the white 384 well polystyrene plates. The assay buffer contained 50 mM HEPES, pH 7.5, 0.01% Tween-20, 5 mM MgCl2, 0.01% BSA, and 5 mM DTT. 5 μl of 4 nM active HPK1 (SignalChem M23-11G) prepared in the buffer was added to the plate. The enzyme concentration given was based on the given stock concentration reported by the vender. 5 μl of 18 nM tracer 222 (ThermoFisher PV6121) and 4 nM LanthaScreen Eu-Anti GST antibody (ThermoFisher PV5595) were added. After one hour incubation at 25° C., the plates were read on a PHERAstar FS plate reader (BMG Labtech). Ki values were determined.

Chain of HPK1 (Q92918 whole entry, looked up): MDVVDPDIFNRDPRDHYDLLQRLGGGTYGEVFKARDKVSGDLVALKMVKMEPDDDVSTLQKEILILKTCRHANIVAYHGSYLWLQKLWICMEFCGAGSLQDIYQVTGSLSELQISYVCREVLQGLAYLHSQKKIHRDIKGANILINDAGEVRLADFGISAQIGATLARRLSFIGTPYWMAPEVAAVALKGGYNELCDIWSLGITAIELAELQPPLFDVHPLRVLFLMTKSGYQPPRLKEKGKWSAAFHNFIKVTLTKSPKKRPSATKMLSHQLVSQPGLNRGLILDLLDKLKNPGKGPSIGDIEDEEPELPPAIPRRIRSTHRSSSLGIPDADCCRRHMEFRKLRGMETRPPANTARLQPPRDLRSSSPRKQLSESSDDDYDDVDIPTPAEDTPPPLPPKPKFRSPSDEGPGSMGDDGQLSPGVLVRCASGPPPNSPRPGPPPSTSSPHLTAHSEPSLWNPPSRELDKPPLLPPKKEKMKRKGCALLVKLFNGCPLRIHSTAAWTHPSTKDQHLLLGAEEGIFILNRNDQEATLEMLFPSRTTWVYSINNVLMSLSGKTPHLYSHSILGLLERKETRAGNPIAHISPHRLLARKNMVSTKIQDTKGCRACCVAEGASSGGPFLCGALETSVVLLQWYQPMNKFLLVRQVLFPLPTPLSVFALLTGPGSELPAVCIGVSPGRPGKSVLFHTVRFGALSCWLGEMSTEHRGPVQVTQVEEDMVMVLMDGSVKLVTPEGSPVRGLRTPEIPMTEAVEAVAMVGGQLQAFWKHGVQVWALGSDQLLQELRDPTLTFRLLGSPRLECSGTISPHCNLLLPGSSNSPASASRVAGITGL

| Ki | SMILES |
| --- | --- |
| ≤ 100 nM | CNCc1cc(F)c(-c2ncc3[nH]nc(-c4ccc(NC5CCN(S(C)(=O)=O)CC5)cc4)c3n2)c(F)c1 [Example 72, 7V-(4-(5-(2,6-Difluoro-4-((methylamino)methyl)phenyl)-1H-pyrazolo[4,3-d]pyrimidin-3-yl)phenyl)-1-(methylsulfonyl)piperidin-4-amine] |
| ≤ 100 nM | CNCc1cc(F)c(-c2ncc3[nH]nc(-c4ccc(N5CCCCC5)nc4)c3n2)c(C(F)(F)F)c1 [Example 76, 1-(3-Fluoro-4-(3-(6-(piperidin-1-yl)pyridin-3-yl)-1H-pyrazolo[4,3-d]pyrimidin-5-yl)-5-(trifluoromethyl)phenyl)-N-methylmethanamine] |
| ≤ 100 nM | CN1CCN(c2ncc(-c3n[nH]c4cnc(-c5c(F)cc(CC#N)cc5F)nc34)cn2)CC1 [Example 105, 2-(3,5-Difluoro-4-(3-(2-(4-methylpiperazin-1-yl)pyrimidin-5-yl)-1H-pyrazolo[4,3-d]pyrimidin-5-yl)phenyl)acetonitrile] |

— US11542265B2, “Pyrazolopyrimidine compounds and uses thereof” (Incyte Corporation, priority 2016, dated 2023)
